2 compounds from patent EP4772520A1, “NOVEL PRODRUG-TYPE ANTICANCER AGENT TARGETING CANCER-SPECIFIC ENZYME ACTIVITY” (priority 2023, dated 2025) can be followed below.

Data set [1] deals with T1, Human β-Galactosidase 1 (GLB1) (Homo sapiens, UniProt P16278).
T1 sequence (P16278 29-677): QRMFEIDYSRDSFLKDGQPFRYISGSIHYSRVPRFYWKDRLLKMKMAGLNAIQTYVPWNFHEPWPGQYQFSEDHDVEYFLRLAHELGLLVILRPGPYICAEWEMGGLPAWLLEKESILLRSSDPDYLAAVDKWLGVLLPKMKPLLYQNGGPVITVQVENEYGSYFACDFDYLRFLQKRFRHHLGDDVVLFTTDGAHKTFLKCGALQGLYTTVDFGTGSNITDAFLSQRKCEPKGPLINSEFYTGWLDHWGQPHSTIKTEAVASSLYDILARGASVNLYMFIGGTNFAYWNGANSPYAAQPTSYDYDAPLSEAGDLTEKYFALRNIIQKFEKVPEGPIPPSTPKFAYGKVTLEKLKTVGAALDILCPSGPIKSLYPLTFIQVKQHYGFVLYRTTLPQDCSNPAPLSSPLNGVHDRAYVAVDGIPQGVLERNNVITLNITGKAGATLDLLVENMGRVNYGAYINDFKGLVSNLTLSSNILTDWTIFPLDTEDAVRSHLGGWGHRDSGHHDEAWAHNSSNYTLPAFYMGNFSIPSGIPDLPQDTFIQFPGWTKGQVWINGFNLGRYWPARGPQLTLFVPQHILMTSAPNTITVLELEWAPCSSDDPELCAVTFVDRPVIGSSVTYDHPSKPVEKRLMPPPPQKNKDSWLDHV
The data set can be described thus: Evaluation of drug release using LC-MS. It counts as biochemical. Conditions: GLB1 purified enzyme added. From the text:
Reactivity with Human β-Galactosidase 1 (GLB1), which is an assumed target enzyme of SN38-βGal, was confirmed using LC-MS.

Data set [2] deals with luciferase-expressing A549 cell. Nature of the data set: Therapeutic experiment in A549 peritoneal dissemination model. It counts as in vivo, mice. The protocol: The therapeutic effect was verified using a peritoneal dissemination model using SN38-βGal. Whether the tumor suppression effect was confirmed was evaluated as compared with the Vehicle group (DMSO administration) by separating the SN38-βGal from the 10 mg/kg and 20 mg/kg administration groups.
n = 3 for each group, and evaluation was performed on luciferase-expressing A549 cell peritoneal dissemination model mice using BALB/cAJcl-nu/nu. The administration form was intraperitoneal administration (i.p.), and continuous administration was performed for 40 days. Tumor burden was determined by evaluating luciferin/luciferase chemiluminescence. An endpoint was a time point at which significant body weight loss (20% loss) or intraperitoneal hemorrhage was found.
A specific procedure of the therapeutic experiment is shown below. • (1) Luciferase expressing A549 cells 5 × 10^6 cells/mL (200 µL) was intraperitoneally administered to BALB/cAJcl-nu/nu (7 weeks old). • (2) After one week, the formation of peritoneal dissemination was confirmed by luciferin/luciferase chemiluminescence, and drug administration was started. 3 mg (200 µL) of luciferin was administered by intraperitoneal administration, and anesthetized with isoflurane. Thereafter, the chemiluminescent value at 20 minutes after administration was measured by an in vivo imaging device. The drug was prepared by dissolving a 100 mM of DMSO stock in PBS, and administered in a total amount of 100 µL. • (3) On the day of evaluation, the tumor burden was evaluated by luciferin/luciferase chemiluminescence. • (4) After completion of the treatment, gGlu-HMRG (10 µM, 500 µL PBS) was intraperitoneally administered, and 10 minutes later, the abdomen was opened, and the intestinal tract and the peritoneum were taken out. • (5) The seeded lesion was fluorescently imaged by an in vivo fluorescence imaging device, and comparison between the Vehicle and the administration group was performed.

Data set [3] deals with mouse Lewis lung cancer-derived cell line LLC (3LL). The data set can be described thus: Combination experiment with anti-PD-1 antibody, LLC subcutaneous tumor model. It counts as in vivo, mice. The settings on record: anti-PD-1 antibody 100 µg i.p. twice a week, SN38-βGlcNAc 150 mg/kg i.v. three times a week. The protocol: The effect of combination use of an anti-PD-1 antibody and SN38-βGlcNAc used as a main cancer immunotherapy in current lung cancer treatment was examined. Subcutaneous tumor model mice of a mouse Lewis lung cancer-derived cell line LLC (3LL) reported to have sensitivity to the anti-PD-1 antibody were evaluated, and the Vehicle (DMSO) group was n = 8, the anti-PD-1 antibody administration group was n = 5, the SN38-βGlcNAc administration group was n = 6, and the combination use group of the anti-PD-1 antibody and the SN38-βGlcNAc was n = 5. As an antibody, anti-mouse PD-1 antibody Clone RMP1-14 (Leinco Technologies, Inc.) was used. […]
A specific procedure of the therapeutic experiment is shown below. • (1) Hair on the dorsal side from the upper part of the right foot of C57BL/6JJcl (7 weeks old, female) was shaved with a hair clipper, and then LLC cells 2.0 ×10^6 cells (50 µL) were subcutaneously injected. • (2) The drug administration was started to the individual whose tumor volume reached about 50 to 170 mm^3 after 6 days. […] The anti-PD-1 antibody (Clone RMP1-14) was administered by intraperitoneal administration of 100 µg dissolved in 100 µL of PBS. • (3) The body weight was measured on the day of evaluation, and the tumor volume was evaluated with a vernier caliper. • (4) The time point when the tumor volume reached 2000 to 3000 mm^3 was taken as the endpoint.

The structures appear in SMILES notation.

In the case of `CCc1c2c(nc3ccc(O[C@@H]4O[C@H](CO)[C@H](O)[C@H](O)[C@H]4O)cc13)-c1cc3c(c(=O)n1C2)COC(=O)[C@]3(O)CC` [SN38-βGal], in data set [1], the “release of SN38” value was “the release of SN38 showing an anticancer effect was confirmed”. In addition, in data set [2] (10 mg/kg and 20 mg/kg i.p., continuous administration for 40 days, vs Vehicle), the “tumor suppression effect (luciferin/luciferase chemiluminescence)” value is reported as “the therapeutic efficacy of SN38-βGal in peritoneal dissemination model mice was confirmed”. Also, the body weight result was “there was almost no difference from the Vehicle” in data set [2] (10 mg/kg i.p. group) and “a slight body weight loss was found in the 20 mg/kg group by Day 10 of administration” in data set [2] (20 mg/kg i.p. group).
For `CCc1c2c(nc3ccc(O[C@@H]4O[C@H](CO)[C@@H](O)[C@H](O)[C@H]4NC(C)=O)cc13)-c1cc3c(c(=O)n1C2)COC(=O)[C@]3(O)CC` [SN38-βGlcNAc], the body weight entry in data set [3] is listed as “no body weight loss was found in any group”. In data set [3] (vs Vehicle), the “tumor proliferation suppression (tumor volume)” value is given as “showed tumor proliferation suppression”.
